Assay results reported in patent US8546451B2 (priority 2005, dated 2013).
Marks after values point to notes of the source that are not given here.

Tests used:
[1] = test system: testosterone, prostate specific antigen (PSA), prostate volume and weight; assay: 39-week oral pharmacology and toxicology study in male cynomolgus monkey (13-week interim); settings: for reduction of prostate volume: six weeks; for reduction of mean prostate weights: thirteen weeks
[2] = Oral bioavailability in rats; assay type: in vivo
Protocol: Formulations using polyethylene glycol 300 (PEG300) generally produced higher exposures than microemulsions prepared in Tween 80 diluted in deionized water. […] Importantly, in dogs the exposure in the male 30 mg/kg PEG300 oral dose group exceeded the exposure necessary to produce the maximal effect on prostate reduction in the rat model of LH suppression.

[3] = Day 7, 10 mg/kg/day oral, Quantifiable concentrations only
[4] = Day 7, 100 mg/kg/day oral, Estimated final concentrations
[5] = Day 7, 100 mg/kg/day oral, Quantifiable concentrations only
[6] = Day 14, 1 mg/kg/day oral, Estimated final concentrations
[7] = Day 14, 1 mg/kg/day oral, Quantifiable concentrations only
[8] = Day 14, 10 mg/kg/day oral, Estimated final concentrations
[9] = Day 14, 10 mg/kg/day oral, Quantifiable concentrations only
[10] = Day 14, 100 mg/kg/day oral, Estimated final concentrations
[11] = Day 14, 100 mg/kg/day oral, Quantifiable concentrations only
[12] = Day 28, 1 mg/kg/day oral, Estimated final concentrations
[13] = Day 28, 1 mg/kg/day oral, Quantifiable concentrations only
[14] = Day 28, 10 mg/kg/day oral, Estimated final concentrations
[15] = Day 28, 10 mg/kg/day oral, Quantifiable concentrations only
[16] = Day 28, 100 mg/kg/day oral, Estimated final concentrations
[17] = Day 28, 100 mg/kg/day oral, Quantifiable concentrations only
[18] = Day 64, 1 mg/kg/day oral, Estimated final concentrations
[19] = Day 64, 1 mg/kg/day oral, Quantifiable concentrations only
[20] = Day 64, 10 mg/kg/day oral, Estimated final concentrations
[21] = Day 64, 10 mg/kg/day oral, Quantifiable concentrations only
[22] = Day 64, 100 mg/kg/day oral, Estimated final concentrations
[23] = Day 64, 100 mg/kg/day oral, Quantifiable concentrations only
[24] = Day 90, 1 mg/kg/day oral, Estimated final concentrations
[25] = Day 90, 1 mg/kg/day oral, Quantifiable concentrations only
[26] = Day 90, 10 mg/kg/day oral, Estimated final concentrations
[27] = Day 90, 10 mg/kg/day oral, Quantifiable concentrations only
[28] = Day 90, 100 mg/kg/day oral, Estimated final concentrations
[29] = Day 90, 100 mg/kg/day oral, Quantifiable concentrations only

## O=C(c1ccc(O)c(F)c1)N(c1ccc(O)cc1)c1ccc(F)cc1 [Compound IV, 3-fluoro-N-(4-fluorophenyl)-4-hydroxy-N-(4-hydroxyphenyl)benzamide]
[1]; Day 7, 10 mg/kg/day oral, Estimated final concentrations
  Percentage change of mean serum testosterone levels compared to baseline: 57%
[1]; [3]
  Mean serum testosterone level: 7.7 ng/mL
  Percentage change of mean testosterone levels compared to baseline: 57%
[1]; Day 7, 100 mg/kg/day oral
  suppression of serum testosterone relative to the baseline value: 51%
[1]; [4]
  Mean serum testosterone level: 2.2* ng/mL
  Percentage change of mean serum testosterone levels compared to baseline: −51%
[1]; [5]
  Mean serum testosterone level: 2.2 ng/mL
  Percentage change of mean testosterone levels compared to baseline: −51%
[1]; [6]
  Mean serum testosterone level: 3.8 ng/mL
  Percentage change of mean serum testosterone levels compared to baseline: −48%
[1]; [7]
  Mean serum testosterone level: 3.8 ng/mL
  Percentage change of mean testosterone levels compared to baseline: −48%
[1]; [8]
  Mean serum testosterone level: 7.1 ng/mL
  Percentage change of mean serum testosterone levels compared to baseline: 45%
[1]; [9]
  Mean serum testosterone level: 7.1 ng/mL
  Percentage change of mean testosterone levels compared to baseline: 45%
[1]; Day 14, 100 mg/kg/day oral
  suppression of serum testosterone relative to the baseline value: 42%
[1]; [10]
  Mean serum testosterone level: 2.6 ng/mL
  Percentage change of mean serum testosterone levels compared to baseline: −42%
[1]; [11]
  Mean serum testosterone level: 2.6 ng/mL
  Percentage change of mean testosterone levels compared to baseline: −42%
[1]; [12]
  Mean serum testosterone level: 4.7 ng/mL
  Percentage change of mean serum testosterone levels compared to baseline: −35%
[1]; [13]
  Mean serum testosterone level: 4.7 ng/mL
  Percentage change of mean testosterone levels compared to baseline: −35%
[1]; [14]
  Mean serum testosterone level: 9.4 ng/mL
  Percentage change of mean serum testosterone levels compared to baseline: 92%
[1]; [15]
  Mean serum testosterone level: 9.4 ng/mL
  Percentage change of mean testosterone levels compared to baseline: 92%
[1]; Day 28, 100 mg/kg/day oral
  suppression of serum testosterone relative to the baseline value: 79%
[1]; [16]
  Mean serum testosterone level: 0.9* ng/mL
  Percentage change of mean serum testosterone levels compared to baseline: −79%
[1]; [17]
  Mean serum testosterone level: 0.9 ng/mL
  Percentage change of mean testosterone levels compared to baseline: −79%
[1]; [18]
  Mean serum testosterone level: 4.3 ng/mL
  Percentage change of mean serum testosterone levels compared to baseline: −41%
[1]; [19]
  Mean serum testosterone level: 4.3 ng/mL
  Percentage change of mean testosterone levels compared to baseline: −41%
[1]; [20]
  Mean serum testosterone level: 5.4 ng/mL
  Percentage change of mean serum testosterone levels compared to baseline: 11%
[1]; [21]
  Mean serum testosterone level: 5.4 ng/mL
  Percentage change of mean testosterone levels compared to baseline: 11%
[1]; Day 64, 100 mg/kg/day oral
  suppression of serum testosterone relative to the baseline value: 92%
[1]; [22]
  Mean serum testosterone level: 0.3* ng/mL
  Percentage change of mean serum testosterone levels compared to baseline: −92%
[1]; [23]
  Mean serum testosterone level: 0.3 ng/mL
  Percentage change of mean testosterone levels compared to baseline: −92%
[1]; [24]
  Mean serum testosterone level: 4.2 ng/mL
  Percentage change of mean serum testosterone levels compared to baseline: −42%
[1]; [25]
  Mean serum testosterone level: 4.2 ng/mL
  Percentage change of mean testosterone levels compared to baseline: −42%
[1]; [26]
  Mean serum testosterone level: 4.6 ng/mL
  Percentage change of mean serum testosterone levels compared to baseline: −5.5%
[1]; [27]
  Mean serum testosterone level: 4.6 ng/mL
  Percentage change of mean testosterone levels compared to baseline: −5.5%
[1]; [28]
  Mean serum testosterone level: 0.2* ng/mL
  Percentage change of mean serum testosterone levels compared to baseline: −96%
  suppression of serum testosterone relative to the baseline value: 96%
[1]; [29]
  Mean serum testosterone level: 0.2 ng/mL
  Percentage change of mean testosterone levels compared to baseline: −95%
[1]; after 90 days, 100 mg/kg/day oral, LLOQ 0.246 ng/mL
  monkeys with testosterone below the limit of quantification: 6 of 10
[1]; any dose up to 100 mg/kg/day
  testosterone flare: not observed
[1]; cynomolgus monkey, in vivo
  effects on platelet aggregation, prothrombin time (PT) or activated partial thromboplastin time (APTT): No apparent effects
[1]; 10 mg/kg
  reduction of prostate volume: 25%
[1]; 100 mg/kg
  reduction of prostate volume: 45%
[1]; 10 mg/kg/day
  reduction of mean prostate weights: 24%
[1]; 100 mg/kg/day
  reduction of mean prostate weights: 21%
[2]
  absorption following oral dosing: rapidly absorbed
[2]; rat, in vivo, po, depending on the formulation
  bioavailability: 6 to 25%
